The target in test [1] is T1, rhesus monkey wild-type alpha-7 nACh receptor (Macaca mulatta, UniProt Q866A2).
T1 construct: expressed in transfected cells
In words: Patch clamp net charge analysis of wild-type mkα7 in stably transfected QM7 cells. The test is classed as cell-based. To be noted: wild-type alpha-7 clone #1, dose response curve, FIG. 8, normalized to 1 mM ACh. As to the method: (§1) QM 7 cells were routinely grown as monolayers in minimum essential medium 199 supplemented with 5% FBS, 2% tryptose phosphate broth, 1% DMSO, penicillin (100 IU/ml) and were passaged every 3-4 days. Transfections with either rhesus monkey wild type alpha7 nAchR (mkα7) or mutant alpha7 nAchR (mkα7/L270T) were performed using Lipofectamine PLUS Kit (Invitrogen). Twenty-four hours after the transfection, cells were split for stable selection with 1 mg/ml G418. Single colonies were isolated and propagated. The expression of mkα7/L270T was identified with FLIPR for fluorescence changes after addition of agonist. The expression of mkα7 was identified by radioligand binding to [^3H]-methyllycaconitine (Virginio, C., A., Giacometti, A. et al. (2002). Pharmacological properties of rat alpha7 nicotinic receptors expressed in native and recombinant cell systems, Eur, J. Pharmacol. 445(3), 153-161.)
Stably transfected QM7 cells grown on cover slips and expressing wild-type rhesus monkey alpha7 receptors were incubated at 37° C. in the presence of 5% CO2. Individual cover slips were removed for function analysis and placed in a recording buffer consisting of 140 mM NaCl, 5 mM KCl, 10 mM HEPES, 2 mM CaCl2, 1 mM MgCl2, 100 mM glucose titrated to pH 7.3 and perfused at 2-3 ml/min. […]
A general note: The patch-clamp technique gives a direct electrical read-out from membranes.

The target in test [2] is T2, mutant (L270T) alpha7 nAchR (Macaca mulatta, UniProt Q866A2, L270T).
T2 construct: expressed in transfected cells
In words: FLIPR functional measurement of mutant mkα7/L270T stably expressed in QM7 cells. Format: cell-based, rhesus monkey. To be noted: Fluo-3AM, FIG. 7. As to the method: as §1
Cells were seeded into 96 well black wall and clear-bottom plates (Costar) coated with poly-D-lysine at a density of 20,000 cells per well and cultured overnight. […] The fluorescence was monitored (λex=488 […]) for three minutes immediately after the compound addition. The relative fluorescence unit (RFU) was measured as peak fluorescence intensity minus basal fluorescence intensity. […]

One may read the EC50 as the concentration giving half of the maximal effect.

Turning to `CC(=O)OCC[N+](C)(C)C` [acetylcholine], the EC50 in test [1] was found to be 38 µM.

As to `COc1ccc(/C=C2\CCCN=C2c2cccnc2)c(OC)c1` [GTS-21], the “EC50 compared with nicotine” value in test [2] is “better or comparable to that of nicotine”.

Source of the values: patent US20060142188A1 (Memory Pharmaceuticals Corporation, priority 2003, published 2006).
